Experiments:
Format in all cases: cell-based
CD₄ [1] = target: T1, CD₄ (Homo sapiens, UniProt P01730); assay: Percentage of CD4 still expressed in Molt 3 cells after incubation in the presence of BMS serum substitute; design: percentage of CD₄ still expressed in the Molt 3 cells after incubation; endogenous in cells; host or cells: Molt 3 cells; conditions: 60 minutes, 37°C, 89% without agent
Method: Molt 3 cells (5x10⁶) were incubated with various concentrations of N-dichloroacetyl lyso GM₁ (from 1 µg/ml to 250 µg/ml) for 60 minutes at 37°C in the presence of BMS (BMS Serum Substitute, Biochrom. Kg. Seromed, Berlin, Germany). After incubation the percentage of CD₄ expressed was shown by a specific Mab for CD₄ (T₄ Coulter Clone, Coulter Electronics, Hialeah, Florida, USA). For a positive control, an experiment-was carried out with monosialoganglioside GM₁ under the same experimental conditions as reported for N-dichloroacetyl lyso GM₁.
Table 2 reports the percentage of CD₄ still expressed in the Molt 3 cells after incubation with different chemical molecules at different concentrations, as described in Example 1. The CD₄ expressed in the absence of the chemical agents during the experiment was 89%.

CD₄ [2] = target: T1, CD₄; assay: Percentage of CD4 still expressed in Molt 3 cells after incubation in the presence of fetal calf serum; design: percentage of CD₄ still expressed in the Molt 3 cells after incubation; endogenous in cells; host or cells: Molt 3 cells; conditions: for percentage of CD₄ still expressed in the Molt 3 cells: 60 minutes, 37°C, 84% without agent; for effect of serum concentration on the modulating action on the CD₄ receptor: conclusion in words from Table 3, FCS 1% to 5%
Method: Molt 3 cells (5x10⁶) were incubated with different concentrations of N-dichloroacetyl lyso GM₁ (from 1 µg/ml to 125 µg/ml) for 60 minutes at 37°C in the presence of different concentrations of fetal calf serum (FCS) (from 1% to 5%). After incubation the percentage of CD₄ expressed was shown by a specific Mab for CD₄ (T₄ Coulter Clone, Coulter Electronics, Hialeah, Florida, USA).
As a positive control, an experiment with the monosialoganglioside GM₁ was carried out under the same experimental conditions as reported for N-dichloroacetyl lyso GM₁.
The CD₄ expressed in the absence of the chemical agents during the experiment was 84%.

CD₃ = assay: Mean fluorescence intensity of human lymphocytes stained with anti CD3 Mab after incubation with the compound in the presence of serum; conditions: 37°C, one hour
Method: (§1) Human lymphocytes were incubated at various concentrations of the modified ganglioside N-dichloroacetyl lyso GM₁. The cells were stained using monoclonal antibodies (Mab) specific for CD₄, CD₈, CD₃ (T₄, T₈, T₃ Coulter Clone, Coulter Electronics, Hialeah, Florida, USA) and OKT₄ (Ortho Diagnostics, Raritan, New Jersey, USA), these monoclonal antibodies being coupled to fluorescein. By measuring the mean fluorescence intensity (MFI) of the labelled cell population at each concentration of N-dichloroacetyl lyso GM₁, it was possible to quantify how much N-dichloroacetyl lyso GM₁ is necessary to produce 50% inhibition of the fluorescence (I₅₀). The I₅₀ value for […] lymphocytes was 5 µM. The concentration of the composition of N-dichloroacetyl lyso GM₁ at which the fluorescence intensity measurement was 0% was resolved experimentally.
(§2) Specifically, human cells were incubated with saline solution at various concentrations of N-dichloroacetyl lyso GM₁ in the presence of serum at 37°C for one hour. The cells were then washed, incubated with suitable monoclonal antibodies, fixed with 1% formalin and analyzed by MFI after excitation at […] laser length.

CD₄ [3] = target: T1, CD₄; assay: Mean fluorescence intensity of human lymphocytes stained with anti CD4 Mab after incubation with the compound in the presence of serum; design: endogenous in cells; host or cells: human lymphocytes; conditions: for Mean fluorescence intensity (% of positive control): anti CD4 Mab, serum, 37°C, one hour
Method: as §1, §2

| Substance | percentage of CD₄ still expressed in the Molt 3 cells (CD₄ [1]; 1μg/ml) | percentage of CD₄ still expressed in the Molt 3 cells (CD₄ [1]; 5μg/ml) | percentage of CD₄ still expressed in the Molt 3 cells (CD₄ [1]; 25μg/ml) | percentage of CD₄ still expressed in the Molt 3 cells (CD₄ [1]; 125μg/ml) | percentage of CD₄ still expressed in the Molt 3 cells (CD₄ [2]; 1μg/ml, FCS 1%) | percentage of CD₄ still expressed in the Molt 3 cells (CD₄ [2]; 1μg/ml, FCS 2%) | percentage of CD₄ still expressed in the Molt 3 cells (CD₄ [2]; 1μg/ml, FCS 5%) | percentage of CD₄ still expressed in the Molt 3 cells (CD₄ [2]; 25μg/ml, FCS 1%) | percentage of CD₄ still expressed in the Molt 3 cells (CD₄ [2]; 25μg/ml, FCS 2%) | percentage of CD₄ still expressed in the Molt 3 cells (CD₄ [2]; 25μg/ml, FCS 5%) | percentage of CD₄ still expressed in the Molt 3 cells (CD₄ [2]; 75μg/ml, FCS 1%) | percentage of CD₄ still expressed in the Molt 3 cells (CD₄ [2]; 75μg/ml, FCS 2%) | percentage of CD₄ still expressed in the Molt 3 cells (CD₄ [2]; 75μg/ml, FCS 5%) | percentage of CD₄ still expressed in the Molt 3 cells (CD₄ [2]; 125μg/ml, FCS 1%) | percentage of CD₄ still expressed in the Molt 3 cells (CD₄ [2]; 125μg/ml, FCS 2%) | percentage of CD₄ still expressed in the Molt 3 cells (CD₄ [2]; 125μg/ml, FCS 5%) | effect of serum concentration on the modulating action on the CD₄ receptor (CD₄ [2]) | other results |
| --- | --- | --- | --- | --- | --- | --- | --- | --- | --- | --- | --- | --- | --- | --- | --- | --- | --- | --- |
| monosialoganglioside GM₁ [GM1, reference compound] | 88% | 81% | 52% | 0% | 82% | 84% | 85% | 80% | 83% | 81% | 50% | 80% | 83% | 10% | 25% | 72% | this modulating action disappears in the presence of serum | – |
| N-dichloroacetyl lyso GM₁ [N-dichloroacetyl lyso GM1] | 75% | 74% | 47% | 13% | 70% | 73% | 77% | 44% | 55% | 64% | 47% | 50% | 55% | 30% | 49% | 50% | increased serum concentrations do not alter its modulating action on the CD₄ receptor | Mean fluorescence intensity (% of positive control) (CD₃; 2 μg/ml): 100 % of positive control; Mean fluorescence intensity (% of positive control) (CD₃; 5 μg/ml, 60 min): 100 % of positive control; Mean fluorescence intensity (% of positive control) (CD₃; 10 μg/ml, 60 min): 100 % of positive control; Mean fluorescence intensity (% of positive control) (CD₃; 25 μg/ml, 60 min): 100 % of positive control; Mean fluorescence intensity (% of positive control) (CD₃; 50 μg/ml): 100 % of positive control; Mean fluorescence intensity (% of positive control) (CD₄ [3]; 2 μg/ml): 100 % of positive control; Mean fluorescence intensity (% of positive control) (CD₄ [3]; 5 μg/ml): 60 % of positive control; Mean fluorescence intensity (% of positive control) (CD₄ [3]; 10 μg/ml): 28 % of positive control; Mean fluorescence intensity (% of positive control) (CD₄ [3]; 25 μg/ml): 0 % of positive control; Mean fluorescence intensity (% of positive control) (CD₄ [3]; 50 μg/ml): 0 % of positive control; selectivity of modulation, CD₄ receptor versus CD₃ receptor (CD₄ [3]; conclusion in words from Table 1, 2 to 50 μg/ml): selectively modulates the CD₄ receptor without altering the CD₃ receptor; IC50 (CD₄ [3]; minor lymphocytes, fluorescein-coupled Mab, MFI, read-out: 50% inhibition of the fluorescence (I₅₀)): 5 µM |
